In patent US8293764B2, “Compositions and methods for disruption of BRCA2-Rad51 interaction” (The Regents of the University of California, priority 2004, dated 2012):

Assays:
Rad51 in MCF-7 cells = assay: Rad51 stability assay with cyclohexamide; assay type: cell-based; conditions: with cyclohexamide; control cells 5.5 hours
Text: To examine the impact of IBR2 on Rad51 protein expression, IBR2 treated MCF-7 cells was examined by straight western blot probed with a panel of antibodies against BRCA2, Rad51, Rad50, p84 and Rb. […] Consistent with our FACS analysis (FIG. 4A), the hypo-phosphorylated form of Rb, a marker for G1 phase, was the major form observed in the later time points, further confirming that IBR2 arrests cells at G1 phase (FIG. 4A). It has been reported that BRCA2 level is cell cycle dependent, which expresses low in G1 phase and peaks at G1/S boundary. Therefore the decreased level of BRCA2 in IBR2 treated cells may be due to G1 phase arrest. Different from BRCA2 protein, Rad51 protein is expressed constant throughout the cell cycle in MCF-7 cells (data not shown). Therefore, loss of Rad51 protein may be the direct effect of IBR2 treatment instead of the consequence of G1 arrest. […]
Western blot analysis: Cells were treated with […] or 50 μg/ml cycloheximide (CHX) or 1 μM MG132 and harvested at different time points for western blot analysis. […] The intensity of bands was quantified by densitometry using Labworks 4.5 software. The relative value of the band intensity was calculated with respect to that of untreated sample after normalization with the p84 signal.

[1] = test system: breast cancer cells (MDA-MB-468, MDA-MB-435, MCF-7, T47D); assay: MTT assay; assay type: cell-based
Method: The inventors examined the effects of IBR2 on the growth and viability of a panel of breast cancer cell lines. Five exponentially growing breast cancer cell lines (MDA-MB-231, MCF-7, MDA-MB-468, SKBR3 and MDA-MB-435) were incubated with IBR2 at various concentrations (0, 5, 10 and 20 μM) for various periods of time (1, 2, 3, 4 and 5 days). The viable cell numbers were then counted by trypan blue exclusion assay. […] We also examined the effects of IBR2 on the growth and viability of cultured breast cancer cells (MDA-MB-468, MDA-MB-435, MCF-7, T47D) using the 3-(4,5-dimethylthiazol-2-yl)-2,5-diphenyltetrazolium bromide (MTT) assay.
Cell proliferation assay and clonogenic survival assays: To obtain cell growth curves, 1×10^4 cells were seeded in 12-well plate for 24 hours. Cells were then treated, in duplicate, with various concentrations of IBR2 in the presence of 0.4% DMSO. The viable cells were counted by trypan blue exclusion assay daily. MTT assay was performed as previously described (Alley et al., 1988).

MCF-7 cells = assay: Cell cycle analysis by flow cytometry (FACS); assay type: cell-based; conditions: 20 μM IBR2, time-dependent
Method: To explore the mechanism of how IBR2 inhibits cancer cell growth, the inventors analyzed cell cycle progression of IBR2 treated MCF-7 cells by flow cytometry (FACS).
Cell cycle analysis by flow cytometry: To analyze cell cycle distribution, […] MCF-7 cells were seeded in 10-cm dishes for 24 hours and treated with […] IBR2 for various times. Cells were then trypsinized and fixed with 70% ethanol (−20° C.) and stained for 30 minutes with propidium iodide (PI) staining solution (Yun et al., 2005) (50 μg/ml PI, 0.1% sodium citrate, 50 μg/ml RNase A, 0.03% NP-40 in PBS). Flow cytometry analysis was performed using a FACScalibur flow cytometer and cell cycle distribution was analyzed with CellQuest software (Beckton Dickison). 10,000 events were analyzed for each sample and the experiment was repeated twice.

Rad51 multimers = molecular target: T1, Rad51 multimers (Homo sapiens, UniProt Q06609); assay: Gel filtration of Rad51 multimers; assay type: biochemical; conditions: Rad51:compound molar ratio 1:10
T1 sequence (Q06609 1-339): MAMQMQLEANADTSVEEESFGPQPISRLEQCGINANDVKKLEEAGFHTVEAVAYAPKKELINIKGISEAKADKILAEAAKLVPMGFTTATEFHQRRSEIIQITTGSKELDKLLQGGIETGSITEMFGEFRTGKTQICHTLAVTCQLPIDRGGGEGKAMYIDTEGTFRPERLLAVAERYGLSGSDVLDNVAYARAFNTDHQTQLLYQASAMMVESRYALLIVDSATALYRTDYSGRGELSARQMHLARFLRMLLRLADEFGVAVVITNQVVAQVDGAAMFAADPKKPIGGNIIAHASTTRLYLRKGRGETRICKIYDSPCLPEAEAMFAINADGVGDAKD
Text: If the IBR compound indeed occupies the hydrophobic pocket for the entrance of Phe1524 in BRCA2, the oligomerization of Rad51 should also be affected since they share the same binding region. […] Therefore, if IBR2 mimics the BRC hairpin structure, the Rad51 multimerization will also be inhibited by IBR2. We compared the gel filtration profile of Rad51 between with and without IBR2. […] The inhibition of the Rad51 and BRC repeat binding was further analyzed by SPR technology in a solution competition format as previously described (see e.g., Science 303, 844-848).
Gel filtration: A mixture of Rad51 (3.2 μg) and small compound (molar ratio 1:10) was incubated for 15 minutes at 37° C., supplemented with buffer (50 mM triethanolamine-HCl [pH 7.5], 0.5 mM Mg (OAc)2, 1 mM dithiothreitol, 2 mM ATP, and 100 μg/ml BSA, total volume 20 μl) and incubated 15 more minutes. Then the mixture was loaded onto 2.4 ml Superdex 200 PC 3.2/30 columns (Pharmacia) equilibrated with the same buffer as described (Davies et al., 2001). Fractions (50 μl) were collected and 0.5 μl of each fraction was blotted onto PVDF membrane. Rad51 was detected using anti-Rad51 antibody (mAb 14B4).

O=S(=O)(Cc1ccccc1)N1C=Cc2ccccc2C1c1c[nH]c2ccccc12 (stereo not drawn) [IBR2, 2-(benzylsulfonyl)-1-(1H-indol-3-yl)-1,2-dihydroisoquinoline]
half-life of Rad51 (Rad51 in MCF-7 cells): 1.5 h
IC50 [1]: ~10 µM
G1 fraction (MCF-7 cells): increased
S and G2/M fractions (MCF-7 cells): depleted
sub-G1 fraction (apoptotic cells) (MCF-7 cells): significantly increased
Rad51 multimerization (gel filtration elution profile) (Rad51 multimers): dissociates Rad51 multimers
